The record followed here is patent publication US10259772B2, “Agents for maintaining undifferentiated state and promoting proliferation of stem cells” (NIPPON MENARD COSMETIC CO., LTD., priority 2014, dated 2019).

Holding throughout (type): cell-based
Assay [1] has as its system murine embryonic stem cells (murine ES cells). In words: Evaluation of undifferentiated state-maintaining effect on stem cells (Nanog gene expression, real-time PCR). The following applies: final concentration 0.001%, 3 days of culture, Nanog/Gapdh relative expression at onset of culture defined as 100% undifferentiation, no addition control 25. The source says: Using a medium prepared by adding fetal bovine serum (FBS, 15%, manufactured by Sigma-Aldrich Co. LLC), a nucleoside solution (100 times dilution, manufactured by Sumitomo Dainippon Pharma Co., Ltd.), a non-essential amino acids solution (100 times dilution, manufactured by Sumitomo Dainippon Pharma Co., Ltd.), a β2-mercaptoethanol solution (100 times dilution, manufactured by Sumitomo Dainippon Pharma Co., Ltd.), an L-glutamine solution (100 times dilution, manufactured by Sumitomo Dainippon Pharma Co., Ltd.), penicillin (100 units/mL, manufactured by Sigma-Aldrich Co. LLC), and streptomycin (100 μg/mL, manufactured by Sigma-Aldrich Co. LLC) to Dulbecco's Modified Eagle Medium (manufactured by Gibco), 5×10^5 cells of murine embryonic stem cells (murine ES cells: manufactured by COSMO BIO Co., Ltd.) were seeded in a 6 cm dish coated with gelatin (manufactured by Sigma-Aldrich Co. LLC), one or a mixture of fatty acid glycerides 1 to 9 was added to the medium at a final concentration of 0.001%, and culture was continued for 3 days.
After 3 days of culture, cells were collected and washed twice with PBS(−) and RNA was extracted from the cells with Trizol Reagent (Invitrogen). Extracted RNA was reverse-transcripted to cDNA using 2-STEP real-time PCR kit (Applied Biosystems) and then real-time PCR (95° C.: 15 seconds, 60° C.: 30 seconds, 40 cycles) was performed by AB17300 (Applied Biosystems) using the following primer sets to confirm the gene expression of Nanog (undifferentiation marker: Cell Res. 2007 January; 17 (1): 42-9. Review. Nanog and transcriptional networks in embryonic stem cell pluripotency. Pan G, Thomson J A.). Other operations were conducted according to a determined procedure.
The undifferentiated state-maintaining effect was evaluated as follows: the value of the relative gene expression level of Nanog (Nanog gene expression level/Gapdh gene expression level) calculated as the ratio of the Nanog mRNA expression level to the Gapdh mRNA expression level, which is an internal standard, in murine ES cells at the onset of culture was defined as 100% undifferentiation; and relative thereto, the value of the relative gene expression level of Nanog in the ES cells after 3 days of culture was calculated and evaluated.

Assay [2] deals with human somatic stem cells. In words: Evaluation of proliferation-promoting effect on stem cells (cell count). Particulars: 72 h, final concentration 0.001%, 3 days of culture, number of cells in no addition group (control) defined as 100%, read-out: Percent cell proliferation (%). The protocol: 3×10^5 cells of human somatic stem cells (manufactured by DS Pharma Biomedical Co., Ltd.) cultured using a human stem cell culture medium (manufactured by Toyobo Co., Ltd.) were seeded in a 6 cm dish, one or a mixture (fatty acid glycerides 2+3, fatty acid glycerides 4+5) of fatty acid glycerides 1 to 9 was added at a final concentration of 0.001%, and culture was continued for 3 days. When a mixture of two fatty acid glycerides was used, the ratio thereof was 1:1 (weight ratio).
After 3 days of culture, cells were washed three times with PBS(−), then collected with a rubber policeman, and cells were counted for each culture.
The total number of cells without addition of fatty acid glycerides was defined as control and the control was defined as 100(%). Increase or decrease (%) of the number of cells with addition of fatty acid glycerides was calculated and the stem cell proliferation-promoting effect was evaluated.

The subject of assay [3] is human somatic stem cells. In words: In vitro wound healing test (scratch assay). Particulars: final concentration 0.001%, 100 × area of scratch region at 48 hours / area at 0 hours, no addition control 61. The protocol:
The scratch assay (JP Publication (Kokai) No. 2013-18756), which is generally conducted as a method for evaluating the efficacy to promote wound healing, was conducted. Specifically, 5×10^5 cells of human somatic stem cells were seeded in a 3.5 cm dish, cultured using human stem cell culture medium to confluency, and then the bottom of the dish was scratched with the end of a sterilized tip to generate a gap in the cell sheet. Subsequently, the medium was changed to a medium supplemented with one or a mixture (fatty acid glycerides 2+3, fatty acid glycerides 4+5) of fatty acid glycerides 1 to 9 at a final concentration of 0.001% and the percent recovery of the cell gap was evaluated 48 hours later. To obtain the same area under a phase contrast microscope when obtaining images before and after the recovery, a mark that can be used as a reference point is provided near the scratch.
The scratch region 48 hours later was calculated as [scratch region 48 hours later]=100× [area of scratch region at 48 hours]/[area of scratch region at 0 hours] using a commercially available image analysis software. These test results are illustrated in Table 4 below.

Structures are written as SMILES.

As for `CCCCCC=CCC=CCCCCCCCC(=O)OCC(O)COC(=O)CCCCCCCC=CCC=CCCCCC` (stereo not drawn) [Fatty acid glyceride 3, 1,3-Dilinolein], the “Nanog expression level (%) after 3 days of culturing” value (“Nanog expression level (%)” for short) in assay [1] was 65%. Also, the activity at 0.001 % in the assay on human somatic stem cells [2] stood at 158%. In addition, the “Scratch region 48 hours later (%)” value in the assay with human somatic stem cells [3] is recorded as 32%.

Take `CCCCCCCCC=CCCCCCCCC(=O)OCC(O)COC(=O)CCCCCCCC=CCCCCCCCC` (stereo not drawn) [Fatty acid glyceride 6, 1,3-Diolein]: the “Nanog expression level (%)” value in assay [1] stood at 43%. In the assay on human somatic stem cells [2], the activity at 0.001 % came to 130%. Moreover, in the assay with human somatic stem cells [3], the “Scratch region 48 hours later (%)” value was determined as 44%.

On to `CCCCCC=CCC=CCCCCCCCC(=O)OCC(O)COC(=O)CCCCCCCC=CCCCCCCCC` (stereo not drawn) [Fatty acid glyceride 4, 1-Olein-3-linolein], for which, in assay [1], the “Nanog expression level (%)” value turned out to be 59%. In addition, the activity at 0.001 % with human somatic stem cells [2] was determined as 148%. In addition, the “Scratch region 48 hours later (%)” value in the assay with human somatic stem cells [3] is recorded as 38%.

On to `CCCCCCCCCCCCCCCC(=O)O` [Palmitic acid, reference compound], for which the “Nanog expression level (%)” value in assay [1] was 27%. In addition, in the assay on human somatic stem cells [2], the activity at 0.001 % came to 102%. In the assay with human somatic stem cells [3], the “Scratch region 48 hours later (%)” value was 60%.

As to `CCCCCCCC/C=C\CCCCCCCC(=O)OCC(COC(=O)CCCCCCC/C=C\CCCCCCCC)OC(=O)CCCCCCC/C=C\CCCCCCCC` [Fatty acid glyceride 8, Triolein], the “Nanog expression level (%)” value in assay [1] is 35%. Besides, the activity at 0.001 % with human somatic stem cells [2] stood at 118%. In addition, the “Scratch region 48 hours later (%)” value with human somatic stem cells [3] is reported as 52%.

Regarding `CCCCCC=CCC=CCCCCCCCC(=O)OCC(O)CO` (stereo not drawn) [Fatty acid glyceride 1, 1-Monolinolein], the “Nanog expression level (%)” value in assay [1] is recorded as 33%. Besides, the activity at 0.001 % with human somatic stem cells [2] was determined as 115%. For the same molecule, in the assay with human somatic stem cells [3], the “Scratch region 48 hours later (%)” value is recorded as 54%.

As for `CCCCCC=CCC=CCCCCCCCC(=O)OC(CO)COC(=O)CCCCCCCCCCCCCCC` (stereo not drawn) [Fatty acid glyceride 7, 1-Palmitin-2-linolein], the “Nanog expression level (%)” value in assay [1] worked out at 41%. In addition, in the assay on human somatic stem cells [2], the activity at 0.001 % worked out at 129%. Besides, in the assay with human somatic stem cells [3], the “Scratch region 48 hours later (%)” value was 45%.

For `CCCCCC=CCC=CCCCCCCCC(=O)OCC(COC(=O)CCCCCCCC=CCC=CCCCCC)OC(=O)CCCCCCCC=CCC=CCCCCC` (stereo not drawn) [Fatty acid glyceride 9, Trilinolein], the “Nanog expression level (%)” value in assay [1] is reported as 34%. The activity at 0.001 % with human somatic stem cells [2] is 117%. Further, the “Scratch region 48 hours later (%)” value with human somatic stem cells [3] is given as 53%.

As to `CCCCCCCCCCCCCCCC(=O)OCC(COC(=O)CCCCCCCCCCCCCCC)OC(=O)CCCCCCCCCCCCCCC` [Tripalmitin, reference compound], the “Nanog expression level (%)” value in assay [1] came to 26%. The activity at 0.001 % in the assay on human somatic stem cells [2] is 103%. Besides, the “Scratch region 48 hours later (%)” value in the assay on human somatic stem cells [3] is recorded as 59%.

As to `CCCCCC=CCC=CCCCCCCCC(=O)OCC(O)COC(=O)CCCCCCCCCCCCCCC` (stereo not drawn) [Fatty acid glyceride 2, 1-Palmitin-3-linolein], in assay [1], the “Nanog expression level (%)” value is 71%. The activity at 0.001 % with human somatic stem cells [2] is 160%. Further, the “Scratch region 48 hours later (%)” value in the assay with human somatic stem cells [3] came out at 30%.

As for `CCCCCC=CCC=CCCCCCCCC(=O)OCC(O)COC(=O)CCCCCCCCCCCCCCCCC` (stereo not drawn) [Fatty acid glyceride 5, 1-Stearin-3-linolein], in assay [1], the “Nanog expression level (%)” value came out at 57%. The activity at 0.001 % in the assay with human somatic stem cells [2] stood at 145%. Moreover, the “Scratch region 48 hours later (%)” value with human somatic stem cells [3] worked out at 40%.
